Data taken from ChEMBL document CHEMBL1201862, “PubChem BioAssay data set” (2004).
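Exposure lasted 48 hours, with cells grown in 96-well plates and compounds tested at five concentrations. GI50 marks 50% less growth.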 The source made the active and inactive calls. Rule as the data show it: active = GI50 up to about 1.1 µM and inactive = higher.

Columns and labels:
Assay in all cases: DTP human tumour cell line panel, 48 h
OVCAR-4 = tested on: OVCAR-4
MDA-N = tested on: MDA-N
SW-620 = tested on: SW-620
PC-3 = tested on: PC-3
SR = tested on: SR
MDA-MB-231 = tested on: MDA-MB-231
M14 = tested on: M14
HCC 2998 = tested on: HCC 2998
SK-OV-3 = tested on: SK-OV-3
SK-MEL-28 = tested on: SK-MEL-28
Malme-3M = tested on: Malme-3M
NCI-H522 = tested on: NCI-H522
A549 = tested on: A549
U-251 = tested on: U-251
CAKI-1 = tested on: CAKI-1
HCT-15 = tested on: HCT-15
HOP-92 = tested on: HOP-92
TK-10 = tested on: TK-10
IGROV-1 = tested on: IGROV-1
SF-295 = tested on: SF-295

Measured: GI50

O=C(O)c1ccccc1NC(c1ccccc1)c1ccc2cccnc2c1O (stereo not given)
inactive: OVCAR-4 5.78 µM | MDA-N 13.4 µM | SW-620 5.4 µM | PC-3 9.04 µM | SR 2.06 µM | MDA-MB-231 12.1 µM | M14 5.81 µM | HCC 2998 12.3 µM | SK-OV-3 16.8 µM | SK-MEL-28 6.41 µM | Malme-3M 15.8 µM | NCI-H522 3.97 µM | A549 5.56 µM | U-251 4.08 µM | CAKI-1 9.44 µM | HOP-92 26.9 µM | TK-10 13.8 µM | IGROV-1 20.4 µM | SF-295 4.37 µM
4.42 µM: HCT-15
